Data reported in patent US20070010671A1, “Novel quinazoline derivatives and methods of treatment related to the use thereof” (priority 2003, published 2007).
pIC50: −log10 of the molar value.

These compounds were tested against MCH receptor (Homo sapiens, UniProt Q99705) (assay: High throughput functional screening FLIPR/FDSS6000: inhibition of MCH-evoked intracellular Ca2+ changes). Details: class by percent of control at 10^-7 M or by IC50; read-out: class.
Type: cell-based
In short: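 In a kinetic calcium-flux format, compounds were tested at various concentrations against 50 nM MCH. Fluo4-loaded cells expressing a constitutively active, non-endogenous receptor were imaged at 488/530 nm for 290 s after agonist addition.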

pIC50	Compound
> 7.30	Cc1cc([N+](=O)[O-])ccc1NC(=O)N[C@H]1CC[C@@H](Nc2nc(N(C)C)c3ccccc3n2)CC1 [compound 108, N-(cis-4-{[4-(dimethylamino)quinazolin-2-yl]amino}cyclohexyl)-N′-(2-methyl-4-nitrophenyl)urea]
> 7.30	Cc1ccc([N+](=O)[O-])cc1NC(=O)N[C@H]1CC[C@@H](Nc2nc(N(C)C)c3ccccc3n2)CC1 [compound 109, N-(cis-4-{[4-(dimethylamino)quinazolin-2-yl]amino}cyclohexyl)-N′-(2-methyl-5-nitrophenyl)urea]
< 6.70	Cc1cccc([N+](=O)[O-])c1NC(=O)N[C@H]1CC[C@@H](Nc2nc(N(C)C)c3ccccc3n2)CC1 [compound 110]
> 7.30	Cc1ccccc1CNC(=O)N[C@H]1CC[C@@H](Nc2nc(N(C)C)c3ccccc3n2)CC1 [compound 111, N-(cis-4-{[4-(dimethylamino)quinazolin-2-yl]amino}cyclohexyl)-N′-(2-methylbenzyl)urea]
< 6.70	CN(C)c1nc(N[C@H]2CC[C@@H](NC(=O)Nc3ccc4ccccc4c3)CC2)nc2ccccc12 [compound 112]
> 7.30	CN(C)c1nc(N[C@H]2CC[C@@H](NC(=O)Nc3ccccc3[N+](=O)[O-])CC2)nc2ccccc12 [compound 113, N-(cis-4-{[4-(dimethylamino)quinazolin-2-yl]amino}cyclohexyl)-N′-(2-nitrophenyl)urea]
> 7.30	CCCc1ccccc1NC(=O)N[C@H]1CC[C@@H](Nc2nc(N(C)C)c3ccccc3n2)CC1 [compound 114, N-(cis-4-{[4-(dimethylamino)quinazolin-2-yl]amino}cyclohexyl)-N′-(2-propylphenyl)urea]
6.70 to 7.30	CN(C)c1nc(N[C@H]2CC[C@@H](NC(=O)Nc3ccccc3Oc3ccccc3)CC2)nc2ccccc12 [compound 115, N-(cis-4-{[4-(dimethylamino)quinazolin-2-yl]amino}cyclohexyl)-N′-(2-phenoxyphenyl)urea]
> 7.30	Cc1cccc(C(C)(C)C)c1NC(=O)N[C@H]1CC[C@@H](Nc2nc(N(C)C)c3ccccc3n2)CC1 [compound 116, N-(2-tert-butyl-6-methylphenyl)-N′-(cis-4-{[4-(dimethylamino)quinazolin-2-yl]amino}cyclohexyl)urea]
> 7.30	CN(C)c1nc(N[C@H]2CC[C@@H](NC(=O)Nc3ccccc3C(C)(C)C)CC2)nc2ccccc12 [compound 117, N-(2-tert-butylphenyl)-N′-(cis-4-{[4-(dimethylamino)quinazolin-2-yl]amino}cyclohexyl)urea]
6.70 to 7.30	CSc1cccc(NC(=O)N[C@H]2CC[C@@H](Nc3nc(N(C)C)c4ccccc4n3)CC2)c1 [compound 118]
< 6.70	CN(C)c1nc(N[C@H]2CC[C@@H](NC(=O)Nc3cccc(SC(F)(F)F)c3)CC2)nc2ccccc12 [compound 119]
> 7.30	CN(C)c1nc(N[C@H]2CC[C@@H](NC(=O)Nc3ccc4c(c3)OCO4)CC2)nc2ccccc12 [compound 120, N-1,3-benzodioxol-5-yl-N′-(cis-4-{[4-(dimethylamino)quinazolin-2-yl]amino}cyclohexyl)urea]
> 7.30	COc1cc(NC(=O)N[C@H]2CC[C@@H](Nc3nc(N(C)C)c4ccccc4n3)CC2)cc(OC)c1OC [compound 121, N-(cis-4-{[4-(dimethylamino)quinazolin-2-yl]amino}cyclohexyl)-N′-(3,4,5-trimethoxyphenyl)urea]
6.70 to 7.30	CN(C)c1nc(N[C@H]2CC[C@@H](NC(=O)NCc3ccc(Cl)c(Cl)c3)CC2)nc2ccccc12 [compound 122, N-(3,4-dichlorobenzyl)-N′-(cis-4-{[4-(dimethylamino)quinazolin-2-yl]amino}cyclohexyl)urea]
6.70 to 7.30	CN(C)c1nc(N[C@H]2CC[C@@H](NC(=O)Nc3ccc(F)c(F)c3)CC2)nc2ccccc12 [compound 123, N-(3,4-difluorophenyl)-N′-(cis-4-{[4-(dimethylamino)quinazolin-2-yl]amino}cyclohexyl)urea]

pIC50	Compound
6.70 to 7.30	CN(C)c1nc(N[C@H]2CC[C@@H](NC(=O)Nc3cc(F)cc(F)c3)CC2)nc2ccccc12 [compound 125, N-(3,5-difluorophenyl)-N′-(cis-4-{[4-(dimethylamino)quinazolin-2-yl]amino}cyclohexyl)urea]
6.70 to 7.30	COc1cc(NC(=O)N[C@H]2CC[C@@H](Nc3nc(N(C)C)c4ccccc4n3)CC2)cc(OC)c1 [compound 126]
6.70 to 7.30	Cc1cc(C)cc(NC(=O)N[C@H]2CC[C@@H](Nc3nc(N(C)C)c4ccccc4n3)CC2)c1 [compound 127, N-(cis-4-{[4-(dimethylamino)quinazolin-2-yl]amino}cyclohexyl)-N′-(3,5-dimethylphenyl)urea]
6.70 to 7.30	COC(=O)c1cccc(NC(=O)N[C@H]2CC[C@@H](Nc3nc(N(C)C)c4ccccc4n3)CC2)c1 [compound 128, methyl 3-({[(cis-4-{[4-(dimethylamino)quinazolin-2-yl]amino}cyclohexyl)amino]carbonyl}amino)benzoate]
> 7.30	Cc1c(Cl)cccc1NC(=O)N[C@H]1CC[C@@H](Nc2nc(N(C)C)c3ccccc3n2)CC1 [compound 129]
6.70 to 7.30	CN(C)c1nc(N[C@H]2CC[C@@H](NC(=O)Nc3ccc(F)c(Cl)c3)CC2)nc2ccccc12 [compound 130]
> 7.30	COc1ccc(NC(=O)N[C@H]2CC[C@@H](Nc3nc(N(C)C)c4ccccc4n3)CC2)cc1Cl [compound 131, N-(3-chloro-4-methoxyphenyl)-N′-(cis-4-{[4-(dimethylamino)quinazolin-2-yl]amino}cyclohexyl)urea]
6.70 to 7.30	CCc1cccc(NC(=O)N[C@H]2CC[C@@H](Nc3nc(N(C)C)c4ccccc4n3)CC2)c1 [compound 132, N-(cis-4-{[4-(dimethylamino)quinazolin-2-yl]amino}cyclohexyl)-N′-(3-ethylphenyl)urea]
< 6.70	CN(C)c1nc(N[C@H]2CC[C@@H](NC(=O)Nc3cc(F)cc(C(F)(F)F)c3)CC2)nc2ccccc12 [compound 133]
6.70 to 7.30	CN(C)c1nc(N[C@H]2CC[C@@H](NC(=O)NCc3cccc(F)c3)CC2)nc2ccccc12 [compound 134, N-(cis-4-{[4-(dimethylamino)quinazolin-2-yl]amino}cyclohexyl)-N′-(3-fluorobenzyl)urea]
< 6.70	CN(C)c1nc(N[C@H]2CC[C@@H](NC(=O)Nc3cccc([N+](=O)[O-])c3)CC2)nc2ccccc12 [compound 135]
< 6.70	CN(C)c1nc(N[C@H]2CC[C@@H](NC(=O)Nc3ccc(C(F)(F)F)cc3)CC2)nc2ccccc12 [compound 136]
< 6.70	CN(C)c1nc(N[C@H]2CC[C@@H](NC(=O)Nc3ccc(SC(F)(F)F)cc3)CC2)nc2ccccc12 [compound 137]
< 6.70	Cc1cc(NC(=O)N[C@H]2CC[C@@H](Nc3nc(N(C)C)c4ccccc4n3)CC2)c([N+](=O)[O-])cc1C [compound 138]
< 6.70	CN(C)c1nc(N[C@H]2CC[C@@H](NC(=O)Nc3ccc(OCc4ccccc4)cc3)CC2)nc2ccccc12 [compound 139]
< 6.70	CN(C)c1nc(N[C@H]2CC[C@@H](NC(=O)Nc3ccc(Cc4ccccc4)cc3)CC2)nc2ccccc12 [compound 140]

Compound	pIC50
COc1ccc(NC(=O)N[C@H]2CC[C@@H](Nc3nc(N(C)C)c4ccccc4n3)CC2)cc1OC [compound 124, N-(3,4-dimethoxyphenyl)-N′-(cis-4-{[4-(dimethylamino)quinazolin-2-yl]amino}cyclohexyl)urea]	> 7.30
